Measurements reported in US10238688B2, “Combination therapies for bladder cancer” (GENEDIA BIOTECH CO. LTD., priority 2015, dated 2019).

What was measured:
Format in all cases: cell-based, human
Myc/Max pathway = test: Cignal Finder dual-luciferase pathway reporter, Myc/Max; settings: for Relative activity, Myc/Max reporter: luc/Renluc relative to negative control reporter, single drug at 4 folds vs EH/Ci/Mi combination
Description: (§1) The pathway analysis was performed with Qiagen's Cignal Finder Pathway Reporter Array systems according to the manufacturer's instructions. The pathway-focused dual-luciferase reporter construct was a mixture of an inducible transcription factor responsive firefly luciferase reporter and constitutively expressing renilla construct. Transcriptional response element (TRE) sequence response elements to each specific transcriptional factor triggered by the different signaling pathways are positioned before the TATA box of firefly luciferase reporter gene. The extent of activity of the reporter reflects the level of activity of the particular signaling pathway. CMV controlled renilla expression vector is co-transfected into the cell as an internal control. Non-inducible reporter construct that lacks the transcriptional factor binding sequence and could not be induced by any transcription factors is used as a negative control. Cells transfected with CMV directed firefly luciferase reporter gene serve as a positive control. Briefly, cells seeded in 6-well plates were transfected with Cignal finder pathway arrays according to the manufacturer's instructions (Qiagen). Then cells were seeded onto 96-well plates. […] After 6 h of incubation with the different drugs at 37° C., cells were lysed and a dual luciferase assay (for firefly and renilla luciferase) was performed using a PromegaGloMax 20/20 illuminometer. The firefly luciferase activities were normalized over the renilla luciferase activities after background activity determined by luciferase activities of negative controls was subtracted. A triple test of cell survival under these drug doses was also performed by MTT assay following 18 h incubation at 37° C. […]

Hypoxia pathway = test: Cignal Finder dual-luciferase pathway reporter, Hypoxia; set-up: key to Relative activity, Hypoxia reporter: firefly/renilla ratio, background (negative control) subtracted; settings: for Relative activity, Hypoxia reporter: luc/Renluc relative to negative control reporter, single drug at 4 folds vs EH/Ci/Mi combination
Description: The pathway analysis was performed with Qiagen's Cignal Finder Pathway Reporter Array systems according to the manufacturer's instructions. The pathway-focused dual-luciferase reporter construct was a mixture of an inducible transcription factor responsive firefly luciferase reporter and constitutively expressing renilla construct. Transcriptional response element (TRE) sequence response elements to each specific transcriptional factor triggered by the different signaling pathways are positioned before the TATA box of firefly luciferase reporter gene. The extent of activity of the reporter reflects the level of activity of the particular signaling pathway. CMV controlled renilla expression vector is co-transfected into the cell as an internal control. Non-inducible reporter construct that lacks the transcriptional factor binding sequence and could not be induced by any transcription factors is used as a negative control. Cells transfected with CMV directed firefly luciferase reporter gene serve as a positive control. Briefly, cells seeded in 6-well plates were transfected with Cignal finder pathway arrays according to the manufacturer's instructions (Qiagen). Then cells were seeded onto 96-well plates. Ci (6000 ng/mL), Mi (800 ng/mL), or EH (1000 ng/mL) and Ci/Mi/EH combination (Ci, 1500 ng/mL, Mi, 800 ng/mL and EH, 1000 ng/m L) were then added to the cells 24 h post-transfection. After 6 h of incubation with the different drugs at 37° C., cells were lysed and a dual luciferase assay (for firefly and renilla luciferase) was performed using a PromegaGloMax 20/20 illuminometer. The firefly luciferase activities were normalized over the renilla luciferase activities after background activity determined by luciferase activities of negative controls was subtracted. A triple test of cell survival under these drug doses was also performed by MTT assay following 18 h incubation at 37° C. […]

EJ = test: MTT cell survival / IC50, EJ cells
Description: The clinical grade of the chemotherapeutics (NCI Dictionary of Cancer Terms) was provided by the First Affiliated Hospital of Harbin Medical University: Pirarubicin (Pi, Wanle, Shenzhen), Paclitaxel (Pa, Taiji, Sichuan), Adriamycin (Ad, Pfizer, Jiangsu), Epirubicin Hydrochloride (EH, Haizheng, Zhejiang), Hydroxycamptothecin (Hy, Lishizhen, Hubei), Cisplatin (Ci, Haosen, Jiangsu), Gemcitabine (Ge, Haosen, Jiangsu) and Mitomycin (Mi, Haizheng, Zhejiang). The drug induced cell death was determined by a thiazolyl […] (MTT, 490 nm reading) based cell proliferation assay in the cultured cells following treatment by various concentrations of drugs for 72 hours. The relative chemoresistance to each drug of all cell lines was calculated with the lowest IC50 as a reference. The overall chemoresistance of each cell line was described as “chemoresistance index”, the numerator of the total relative IC50 to all the drugs over the number of drugs to rank the overall resistance state of each cell line to the six chemotherapeutics collectively.
The relative IC50 (fold) of each drug of all nine cell lines was normalized to the lowest IC50 in the most sensitive cell line (FIG. 2G), to describe the single drug resistance of cell lines. The overall chemoresistance of each cell line, a “chemoresistance index” (the numerator of the total relative IC50 over the number of drugs) (FIG. 2G) were calculated to rank the overall resistance state of each cell line to this six chemotherapeutics.
Twenty six-drug combinations at the indicated doses were initially generated through a random number generator (using MATLAB MathWorks©, Natick, Mass., U.S.) (The upper half of Table 1). The cell survival (% over the not drug control) of treated cells was determined and then used for a calculation of the average cumulative cell survival (%, ACS: the sum of cell survival (%) per combination divided by the number of cell lines tested). ACS<30% was used to separate the effective from the not-effective combinations.

Heat Shock pathway = test: Cignal Finder dual-luciferase pathway reporter, Heat Shock; set-up: key to Relative activity, Heat Shock reporter: firefly/renilla ratio, background (negative control) subtracted; settings: for Relative activity, Heat Shock reporter: luc/Renluc relative to negative control reporter, single drug at 4 folds vs EH/Ci/Mi combination
Description: as §1

What does the source list for `N.N.[Cl][Pt][Cl]` [Ci, (SP-4-2)-diamminedichloroplatinum(II)]?
digitalized pathway activity, Myc/Max (Myc/Max pathway; 5637 cells): 0 (null (0) if neither of the above holds); relative drug trigged pathway activity over the no-drug level, Myc/Max (Myc/Max pathway; 5637 cells): 1.05 fold; Relative activity, Myc/Max reporter (Myc/Max pathway; 5637 cells): 11.64; digitalized pathway activity, Myc/Max (Myc/Max pathway; Biu87 cells): 0 (null (0) if neither of the above holds); relative drug trigged pathway activity over the no-drug level, Myc/Max (Myc/Max pathway; Biu87 cells): 0.56 fold; Relative activity, Myc/Max reporter (Myc/Max pathway; Biu87 cells): 4.60; digitalized pathway activity, Myc/Max (Myc/Max pathway; H-bc cells): 0 (null (0) if neither of the above holds); relative drug trigged pathway activity over the no-drug level, Myc/Max (Myc/Max pathway; H-bc cells): 1.03 fold; Relative activity, Myc/Max reporter (Myc/Max pathway; H-bc cells): 50.23; digitalized pathway activity, Myc/Max (Myc/Max pathway; SV-HUC-1 cells): 0 (null (0) if neither of the above holds); relative drug trigged pathway activity over the no-drug level, Myc/Max (Myc/Max pathway; SV-HUC-1 cells): 1 fold; Relative activity, Myc/Max reporter (Myc/Max pathway; SV-HUC-1 cells): 109.70; Relative activity, Myc/Max reporter (Myc/Max pathway; UM-UC-3 cells): 24.42; relative drug trigged pathway activity over the no-drug level, Myc/Max (Myc/Max pathway; Um-Uc-3 cells): 0.42 fold; relative drug trigged pathway activity over the no-drug level, Hypoxia (Hypoxia pathway; 5637 cells): 1.64 fold; Relative activity, Hypoxia reporter (Hypoxia pathway; 5637 cells): 37.36; digitalized pathway activity, Hypoxia (Hypoxia pathway; Biu87 cells): 0 (null (0) if neither of the above holds); relative drug trigged pathway activity over the no-drug level, Hypoxia (Hypoxia pathway; Biu87 cells): 1.32 fold; Relative activity, Hypoxia reporter (Hypoxia pathway; Biu87 cells): 10.01; relative drug trigged pathway activity over the no-drug level, Hypoxia (Hypoxia pathway; H-bc cells): 0.39 fold; Relative activity, Hypoxia reporter (Hypoxia pathway; H-bc cells): 49.11; digitalized pathway activity, Hypoxia (Hypoxia pathway; SV-HUC-1 cells): 0 (null (0) if neither of the above holds); relative drug trigged pathway activity over the no-drug level, Hypoxia (Hypoxia pathway; SV-HUC-1 cells): 1.19 fold; Relative activity, Hypoxia reporter (Hypoxia pathway; SV-HUC-1 cells): 30.20; digitalized pathway activity, Hypoxia (Hypoxia pathway; UM-UC-3 cells): 0 (null (0) if neither of the above holds); Relative activity, Hypoxia reporter (Hypoxia pathway; UM-UC-3 cells): 41.68; relative drug trigged pathway activity over the no-drug level, Hypoxia (Hypoxia pathway; Um-Uc-3 cells): 0.66 fold; Cell survival (%) (EJ; Table S3, ng/ml: Pi 40, Pa 160, EH 250, Ci 1500, Mi 200, 1=Ci/Mi, 2=EH/Ci/Mi, 3=Pa/Ci/Mi, 4=Pi/Ci/Mi): 32.34%; Single drug 4X Cell Survival (%) (EJ; ng/ml: EH 1000, Ci 6000, Mi 800, Pi 160, Pa 640, Ge 20, EH/Ci/Mi regimen): 22.36%; digitalized pathway activity, Heat Shock (Heat Shock pathway; 5637 cells): 0 (null (0) if neither of the above holds); relative drug trigged pathway activity over the no-drug level, Heat Shock (Heat Shock pathway; 5637 cells): 0.65 fold; Relative activity, Heat Shock reporter (Heat Shock pathway; 5637 cells): 9.18; relative drug trigged pathway activity over the no-drug level, Heat Shock (Heat Shock pathway; Biu87 cells): 1.52 fold; Relative activity, Heat Shock reporter (Heat Shock pathway; Biu87 cells): 2.87; digitalized pathway activity, Heat Shock (Heat Shock pathway; H-bc cells): 0 (null (0) if neither of the above holds); relative drug trigged pathway activity over the no-drug level, Heat Shock (Heat Shock pathway; H-bc cells): 1.19 fold; Relative activity, Heat Shock reporter (Heat Shock pathway; H-bc cells): 16.31; digitalized pathway activity, Heat Shock (Heat Shock pathway; SV-HUC-1 cells): 0 (null (0) if neither of the above holds); relative drug trigged pathway activity over the no-drug level, Heat Shock (Heat Shock pathway; SV-HUC-1 cells): 0.93 fold; Relative activity, Heat Shock reporter (Heat Shock pathway; SV-HUC-1 cells): 36.80; digitalized pathway activity, Heat Shock (Heat Shock pathway; UM-UC-3 cells): 0 (null (0) if neither of the above holds); Relative activity, Heat Shock reporter (Heat Shock pathway; UM-UC-3 cells): 3.42; relative drug trigged pathway activity over the no-drug level, Heat Shock (Heat Shock pathway; Um-Uc-3 cells): 0.79 fold
